Experimental data taken from patent US7301020B2, “Macrolide analogs and methods for identifying same” (priority 2003, dated 2007).
Values joined by “and” are separate entries in the source; they are usually repeats but may differ in a detail not shown here. Equal values may be shown once.

Assays:
Prodan-labeled G-actin = molecular target: T1, Prodan-labeled G-actin (Oryctolagus cuniculus, UniProt P68135); assay: Prodan-G-actin titration: binding stoichiometry and dissociation constant; parameters: species or system rabbit
T1 construct: F-actin is purified from rabbit skeletal muscle using a standard protocol; Prodan (Acrylodan) fluorophore, chemical label on the thiol of Cys374; from tissue; host or cells: rabbit skeletal muscle
Method: FIG. 2: (A), Stoichiometric binding of Prodan-labeled G-actin (1 μM) in G-buffer with KabC at final concentrations of in μm, a: 0.0; b: 0.1; c: 0.2; d: 0.3; e: 0.4; f: 0.5; g: 0.6; h: 0.7; i: 0.8; j: 0.9; k: 1.0; l: 1.1; m: 1.2; n: 1.5 (B), Plot of the integrated intensity in (A) against [KabC] yields a binding stoichiometry of 1:1.
Prodan-actin: Actin is labeled with the thiol probe, Acrylodan (Molecular Probes, Eugene, Oreg.) using a standard protocol (Marriott et al, 1988). Rabbit muscle G-actin is labeled with the thiol reactive, environmentally sensitive probe, Acrylodan, according to the inventor's earlier publication (Marriott et al, 1988). […]
Determination of the binding stoichiometry and dissociation constants for G-actin complexes with ABPs and macrolide drugs: The change in the quantum yield and/or emission energy of Prodan-actin is used to quantify the interaction of CapG and macrolides with G-actin. The stoichiometry of the CapG-G-actin and macrolide-G-actin complex is determined by titrating Prodan-G-actin at 1 μM with increasing amounts of CapG or the macrolide from 0.1^−10 μM. […] The equilibrium binding constant is determined by titrating a constant amount of Prodan labeled G-actin at 0.05˜0.1 μM in G- or F-buffer with incrementally increasing amounts of the macrolide or CapG over a range of 10 nM to 10 μM. […]

Prodan-G-actin = Prodan-G-actin (Oryctolagus cuniculus, UniProt P68135); assay: Kinetic analysis of binding to Prodan-G-actin (stopped-flow and slow phase); parameters: F-actin is purified from rabbit skeletal muscle using a standard protocol; Prodan (Acrylodan) fluorophore, chemical label on the thiol of Cys374; from tissue; host or cells: rabbit skeletal muscle; species or system rabbit
Method: FIG. 3: Kinetic analyses of KabC binding of Prodan labeled G-actin. (A-B). Prodan-actin (0.1 μM) and KabC, loaded into separated syringes, were rapidly mixed within ˜1 msec dead-time. The concentrations of KabC were 0.0 μM (a), 1.0 μM (b), 1.5 μM (c), 2.0 μM (d) and 2.5 μM (data not shown), respectively. The decreases in emission intensity were well fitted with single exponential functions to determine the observed rate, kobs. The observed rates are plotted as a function of the [KabC] in panel (B).
Kinetic analysis of binding reactions. The kinetics of the KabC interaction with Prodan-actin is determined, using an Applied Photophysics SX.18MV Stopped-flow spectrometer, by following the decrease in the emission intensity of Prodan-actin at 25° C. Prodan was excited at 385 nm and emission was collected with a 470 nm (+/−5 nm) band-pass filter. In all cases the decrease in emission intensity was best fit with a single exponential function, which was then used to determine the observed rate, kobs. Kinetic constants of on rate (kon) and off rate (koff) were calculated according to the following equation: kobs=kon[KabC]+koff. The kinetics of the slower binding step observed in the interaction of KabC with Prodan-G-actin interaction is measured by measuring the ratio of fluorescence signals at 465 nm and 530 nm. The decay of this ratio is fit using a single exponential rate.

Substance: Kabiramide C [KabC]
- decrease of quantum yield of Prodan-G-actin on binding (Prodan-labeled G-actin): ~3 fold
- binding steps in reaction with G-actin (Prodan-G-actin): two-step reaction
- koff (Prodan-G-actin; Prodan-actin 0.1 μM, Y-intercept of kobs vs [KabC]): 5.6 s⁻¹
- kon (Prodan-G-actin; Prodan-actin 0.1 μM, slope of kobs vs [KabC]): 5.45e+07 M⁻¹ s⁻¹
- rate of second, slower phase of G-actin binding (Prodan-G-actin; decrease at 465 nm relative to red edge): 0.008 s⁻¹ and 0.005 s⁻¹
- rate of primary binding event (Prodan-G-actin; fluorescence quenching of Prodan-actin): 30 s⁻¹
- Kd (Prodan-G-actin; koff/kon, read-out: dissociation constant (Kd) from kinetic constants): ~100 nM
